Reference: patent US20070071780A1, “Personal care composition comprising a perfume booster accord” (priority 2005, published 2007)

System: human nose
Experiment: Odor intensity evaluation by panelists and Human Recognition Slope Factor (HRSF) calculation in DPG
Conditions: for HRSF (Human Recognition Slope Factor = Ii/xi) / Ii (maximum intensity in a given media) / xi (lowest concentration to reach maximum intensity): low hydrophobic media (DPG); for Odor Intensity (I): average of 25 panelists, in DPG
Description: The Human Recognition Slope Factor (HRSF) is a tool in choosing the most efficient high odor value materials to create perfume booster accords. […] The higher the number, the more efficient the material will be.
The HRSF identifies the behavior of perfume materials through the relevant range of concentrations in a given product. The calculation process of the HRSF also defines the concentration where the high odor value material reaches its maximum intensity in a given media.
The HRSF is determined by the following calculations: HRSF=Ii/xi wherein: HRSF=Human Recognition Slope Factor; Ii is the maximum intensity that a high odor value material delivers in a given media; and xi is the lowest concentration of the high odor value material to reach maximum intensity.
The value of Ii and xi are calculated using the following two equations. The first equation (I) describes the intensity of a high odor value material across a broad range of concentrations. The second equation (VI) allows one to find the maximum concentration when both mathematical equations reach the same intensity value. I=a/(1+(x/c)ˆb) (I) wherein: I is the Intensity of the high odor value material; x is the concentration of the material; and a, b, and c are experimental constants for each high odor value material.
The experimental constants of “a, b, and c” are generated by performing a non linear regression analysis using commercially available software. One software package useful in performing the non linear regression analysis is GraphPad Prism 4 for Windows, available from GraphPad Software, Inc., San Diego Calif.
Odor evaluations of each raw material are conducted among at least 25 people. Each material is diluted to a given concentration, and panelists are requested to grade the smell using a numeric scale (Low: 0-15, Slight: 16-30, Moderate: 31-50, Strong: 51-70, Very Strong: 71-up). Internal controls containing Benzyl salicylate, Citronellol and Ethyl 2 Methyl Butyrate are used to define the standard intensity for each range.
An illustration of how the non linear regression analysis works is described below. In the following example, the material Alpha Damascone was used for illustrative purposes. The experimental data from 25 panelists indicate that the average value for each observation of Alpha Damascone in DPG is as follows:
The goal of the software package is to minimize the sum of the squares of the vertical distances of the points from the curve. The software prompts the user to perform the following steps to run an iterative process that allows one to find the values of a, b, and c. The R^2 factor (shown below) will indicate if the objective of minimizing the sum of the squares of the vertical distances of the points from the curve was achieved. The closer the R^2 factor is to 1.0, the better the “best-fit values” will be.
The software generates the curve defined by the initial values, calculates the sum-of-squares (the sum of the squares of the vertical distances of the points from the curve), adjusts the variables to make the curve come closer to the data points, adjusts the variables again so that the curve comes even closer to the points, keeps adjusting the variables until the adjustments make virtually no difference in the sum-of-squares and reports the best-fit results.
The “best fit values” are the “a, b, and c” values used in all the equations described herein. Once the “a, b, and c” values are determined, proceed with the following equations.
By definition, the curve that describes that Intensity and its differential curve will meet at the point where a given material delivers the maximum intensity with the minimum mass. Therefore, the next step is to calculate the intersection point by solving the following equation: (ab(xi/c)ˆb)/(x((x/c)ˆb+1)ˆ2=a/(1+(x/c)ˆb) (V)
Therefore, (ab(xi/c)ˆb)/(xi((xi/c)ˆb+1)ˆ2−a/(1+(xi/c)ˆb)=0 (VI) […]

CCCCCCCCCC=O [Decyl Aldehyde]
HRSF (Human Recognition Slope Factor = Ii/xi): 1,098 | Ii (maximum intensity in a given media): 54.35 | xi (lowest concentration to reach maximum intensity): 0.0495

Methyl Cedrylone
HRSF (Human Recognition Slope Factor = Ii/xi): 811 | Ii (maximum intensity in a given media): 84.44 | xi (lowest concentration to reach maximum intensity): 0.1041

CCCCCCCCCCCC=O [Lauric Ald]
HRSF (Human Recognition Slope Factor = Ii/xi): 1,409 | Ii (maximum intensity in a given media): 67.33 | xi (lowest concentration to reach maximum intensity): 0.0478

CC(=O)OC1CC2CC1C1CC=CC21 (stereo not shown) [Tricyclo decenyl acetate]
HRSF (Human Recognition Slope Factor = Ii/xi): 1,379 | Ii (maximum intensity in a given media): 46.74 | xi (lowest concentration to reach maximum intensity): 0.0339

CC(=O)C(C)=CC1C(C)=CCCC1(C)C (stereo not shown) [3-buten-2-one, 3-methyl-4-(2,6,6-trimethyl-2-cyclohexen-1-yl)]
HRSF (Human Recognition Slope Factor = Ii/xi): 1,204 | Ii (maximum intensity in a given media): 85.50 | xi (lowest concentration to reach maximum intensity): 0.071

CCC(C)(O)CCCC(C)C (stereo not shown) [Tetra Hydro linalool, Tetra Hydro 3,7-Dimethyl-1,6-octadien-3-ol]
HRSF (Human Recognition Slope Factor = Ii/xi): 838 | Ii (maximum intensity in a given media): 53.69 | xi (lowest concentration to reach maximum intensity): 0.0641

Cc1ccc2c(c1)OCC(=O)CO2 [Calone 1951, Methyl-3,4-dioxy(cylcoacetonyl) benzene]
HRSF (Human Recognition Slope Factor = Ii/xi): 1,030 | Ii (maximum intensity in a given media): 71.88 | xi (lowest concentration to reach maximum intensity): 0.0698

CC(=O)OC(C)c1ccccc1 (stereo not shown) [Methyl Phenyl Carbinyl Acetate]
HRSF (Human Recognition Slope Factor = Ii/xi): 756 | Ii (maximum intensity in a given media): 50.63 | xi (lowest concentration to reach maximum intensity): 0.067

Hexahydro-4,7methano-1H-inden-5(or 6)-yl propionate [Frutene]
HRSF (Human Recognition Slope Factor = Ii/xi): 738 | Ii (maximum intensity in a given media): 80.35 | xi (lowest concentration to reach maximum intensity): 0.1089

CCOC(=O)CC1(C)OCCO1 [Fructone, ethyl methyl dioxolane acetate]
HRSF (Human Recognition Slope Factor = Ii/xi): 2,243 | Ii (maximum intensity in a given media): 62.36 | xi (lowest concentration to reach maximum intensity): 0.0278

C/C=C\C(=O)C1C(C)=CCCC1(C)C (stereo not drawn) [Alpha Damascone]
Odor Intensity (I) (Concentration (X) 0.0004): 5 | Odor Intensity (I) (Concentration (X) 0.0022): 15 | Odor Intensity (I) (Concentration (X) 0.0032): 25 | Odor Intensity (I) (Concentration (X) 0.0044): 35 | Odor Intensity (I) (Concentration (X) 0.0072): 50 | Odor Intensity (I) (Concentration (X) 0.0092): 55 | Odor Intensity (I) (Concentration (X) 0.0170): 60 | HRSF (Human Recognition Slope Factor = Ii/xi): 2,034 | Ii (maximum intensity in a given media): 62.86 | xi (lowest concentration to reach maximum intensity): 0.0309

CC(=O)/C=C/C1C(C)=CCCC1(C)C (stereo not shown) [Ionone Apha, 3-buten-2-one, 4-(2,6,6-trimethyl-2-cyclohexen-1-yl), (E)]
HRSF (Human Recognition Slope Factor = Ii/xi): 1,157 | Ii (maximum intensity in a given media): 91.99 | xi (lowest concentration to reach maximum intensity): 0.0795

CC1(C)CCC[C@]2(C)[C@H]3CCO[C@]3(C)CC[C@@H]12 [Ambroxan, (3aR-(3aalpha,5abeta,9aalpha,9bbeta))-dodecahydro-3a,6,6,9a-tetramethyl naphtha(2,1-b)furan]
HRSF (Human Recognition Slope Factor = Ii/xi): 7,675 | Ii (maximum intensity in a given media): 68.31 | xi (lowest concentration to reach maximum intensity): 0.0089

CC(=O)C=CC1=C(C)CCCC1(C)C [Ionone Beta, 4-(2,6,6-Trimethyl-1-cyclohexenyl)-3-butenone-2]
HRSF (Human Recognition Slope Factor = Ii/xi): 15,451 | Ii (maximum intensity in a given media): 47.90 | xi (lowest concentration to reach maximum intensity): 0.0031

CC1=CCC(C=CC(C)(C)C(C)O)C1(C)C (stereo not shown) [Polysantol, 3,3-Dimethyl-5-(2,2,3-trimethyl-3-cycloenten-1-yl)-4-penten-2-ol]
HRSF (Human Recognition Slope Factor = Ii/xi): 690 | Ii (maximum intensity in a given media): 73.16 | xi (lowest concentration to reach maximum intensity): 0.106

CC(=O)OC1CCCCC1C(C)(C)C (stereo not shown) [Verdox, ortho tertiary butyl cyclohexanyl acetate]
HRSF (Human Recognition Slope Factor = Ii/xi): 998 | Ii (maximum intensity in a given media): 51.91 | xi (lowest concentration to reach maximum intensity): 0.052
